Source: patent publication US6592821B1, “Focusing of microparticles in microfluidic systems” (Caliper Technologies Corp., priority 1999, dated 2003)

How the values were obtained:
Format in all cases: cell-based
HL-60 cells = test: TUNEL assay for apoptosis in microfluidic device; details: HL-60 cells treated for 6 hours; FIG. 8, untreated control FIG. 9
U937 cells [1] = test: TUNEL assay for apoptosis in microfluidic device; details: U937 cells treated to induce apoptosis; FIG. 5, untreated control FIG. 4
Method: A TUNEL assay (TdT (Terminal deoxynucleotidyl transferase)-mediated dUTP Nick End Labeling) was used to measure cellular apoptosis in accordance with the above-described methods and systems. In a TUNEL Assay, damaged DNA is labeled with fluorescinated nucleotides. Terminal deoxynucleotidyl transferase (TdT) binds to exposed 3′ ends of DNA fragments generated in response to apoptotic signals and catalyzes the addition of fluorescein-labeled deoxynucleotides. U937 cells were treated with Campthotecin to induce apoptosis. The cells were then harvested and fixed with 4% formaldehyde and stored in 80% ethanol at +4° C. until labeling was performed.
The cells were rehydrated in TBS buffer. They were then treated with 20 μg/ml of proteinase K for 5 minutes and resuspended in equilibration buffer. The cells were incubated in a working TdT labeling reaction mixture from Oncogene Research Products containing TdtT enzyme and FragEL TdT labeling reaction mix. […]
After washing the cells in TBS, they were resuspended in Hanks' Balanced Salt Solution with 10% OPTIPREP at 5×10^6/ml and loaded in a microfluidic device having the channel geometry shown in FIG. 1A, for analysis. Fluorescence was detected using 488 nm excitation, while emission was read at 525 nm and 680 nm.

U937 cells [2] = test: Annexin-V assay for apoptosis in microfluidic device; details: U937 cells treated to induce apoptosis; FIG. 7, untreated control FIG. 6
Method: In an Annexin-V assay, change in the outer membrane of apoptotic cells is detected. A membrane component, phosphatidylserine (PS) is translocated to the outer layer. Annexin-V binds to PS and is conjugated to biotin to allow secondary reactions to fluorescently labeled Streptavidin for detection. U937 cells were treated with Campthotecin to induce apoptosis. The cells were harvested and washed in phosphate buffered saline (PBS). Cells were incubated with Annexin-V-Biotin (Boehringer Mannheim) in HEPES buffer, and then incubated with 5 μg streptavidin-Cy5 (Amersham) and […] of Calcein-AM dye in HEPES buffer. The HEPES buffer solution contained 10 mM HEPES, pH 7.4; 140 mM NaCl; and a 5 mM CaCl2. The cells were washed and resuspended in HEPES buffer with 8.5% sucrose and loaded in a microfluidic device for analysis. Fluorescence was detected using excitation at 488 nm and 635 nm, and emission was read at 525 nm and 682 nm.

HL60 cells = test: as above; details: HL60 cells treated for four hours; FIG. 12, untreated control FIG. 13

CC[C@@]1(O)C(=O)OCc2c1cc1n(c2=O)Cc2cc3ccccc3nc2-1 [Campthotecin]
apoptotic cells labeled at DNA damage points vs total cell count (HL-60 cells): almost all cells had sustained apoptotic DNA damage | apoptotic cells (fluorescein end labeled nucleic acid peaks vs SYTO-62 cell peaks) (U937 cells [1]): corresponding peaks are seen on both the lower and upper lines, indicating the presence of apoptotic cells | apoptotic cells (Annexin-V-Cy5 peaks vs Calcein live cell count) (U937 cells [2]): much greater number of peaks representing apoptotic cells | apoptotic cells (Annexin-V-Cy5 labeling vs Calcein live cell count) (HL60 cells): almost all cells are apoptotic
